pIC50, pKd: −log10 of the molar value. Several values for one entry are separate records, joined by “and”; a condition that tells them apart may be missing. Equal entries are not always repeated.
Legend:
BTK T316A = BTK T316A (Homo sapiens (Human), UniProt Q06187, T316A); test: Binding kinetics measurements (Surface Plasmon Resonance) on BTK T316A; settings: for pKd: binding affinity by Surface Plasmon Resonance (SPR); for Tau (h) BTK T316A (Act): target residence time, SPR
In short: (§1)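 Using streptavidin-captured kinase, binding was followed by SPR in 1% DMSO buffer at 22° C and 30 μl/min. Five consecutive compound injections spanned 3.16-316 nM, preceded by a blank run; data were double referenced before kinetic fitting.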

REC-1 T474I cell lines = test: Cell proliferation assay REC-1 BTK T474I knock-in cells (ATPlite, 72 hours); type: cell-based; settings: Homo sapiens, Rec1; 72 hours; read-out: IC50 REC-1 T474I
In short: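 REC-1 cells carrying CRISPR knock-in mutant BTK, single-cell cloned and sequence-confirmed, were exposed to compound for 72 h and read by ATPlite luminescence. Percentage growth was calculated against the signal at the start of incubation and against untreated 0.3% DMSO wells as maximum growth.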

wt-BTK = wt-BTK (Homo sapiens (Human), UniProt Q06187); test: Binding kinetics measurements (Surface Plasmon Resonance) on wt-BTK; settings: for pKd: binding affinity by Surface Plasmon Resonance (SPR); for Tau (h) wt-BTK (Act): target residence time, SPR
In short: as §1

[1] = test system: wt-REC-1 mantle cell lymphoma cells; test: Cell proliferation assay wt-REC-1 (ATPlite, 72 hours); type: cell-based; settings: 72 h; read-out: IC50 wt-REC-1
In short: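 Luminescent viability read over 72 h, start-of-incubation signal recorded separately to separate growth from cell death. Percentage growth referenced to compound-free 0.3% DMSO wells; IC50 from 4-parameter logistic fit.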

[2] = molecular target: full-length BTK C481S enzyme (Homo sapiens (Human), UniProt Q06187, C481S); test: Biochemical kinase assay BTK C481S (IMAP)
In short: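 IC50 values come from IMAP fluorescence polarization after quenching with progressive binding solution. The reaction ran 2 h at room temperature in the dark with 1.2 nM full-length C481S enzyme, 7 μM ATP and 50 nM fluorescein-labelled MBP-derived peptide, following a 1 h dark pre-incubation of compound with enzyme.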

[3] = test system: wt-TMD8 diffuse large B-cell lymphoma cells; test: Cell proliferation assay wt-TMD8 (ATPlite, 120 hours); type: cell-based; settings: B-cell; wt-TMD8 cells, 120 hours, ATPlite; read-out: IC50 wt-TMD8
In short: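 Readout is percentage growth from ATPlite 1Step luminescence after 5 days (120 h) compound treatment of wt-TMD8 lymphoma cells (1600/well, RPMI-1640 + 10% FBS). Time-zero signal separates growth inhibition from cell kill; 0.3% DMSO wells without compound define maximal growth.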

BTK T474I = BTK T474I (Homo sapiens (Human), UniProt Q06187, T474I); test: Binding kinetics measurements (Surface Plasmon Resonance) on BTK T474I; settings: for pKd: binding affinity by Surface Plasmon Resonance (SPR); for Tau (h) BTK T474I (Act): target residence time, SPR
In short: as §1

BTK T474S = BTK T474S (Homo sapiens (Human), UniProt Q06187, T474S); test: Binding kinetics measurements (Surface Plasmon Resonance) on BTK T474S; settings: for residence time: SPR binding kinetics, BTK T474S, read-out: Tau (h) BTK T474S (Act), target residence time (converted); for pKd: binding affinity by Surface Plasmon Resonance (SPR)
In short: as §1

BTK C481S = BTK C481S (Homo sapiens (Human), UniProt Q06187, C481S); test: Binding kinetics measurements (Surface Plasmon Resonance) on BTK C481S; settings: for pKd: binding affinity by Surface Plasmon Resonance (SPR); for Tau (h) BTK C418S (Act): target residence time for BTK C481S, SPR
In short: as §1

[4] = molecular target: full-length wt-BTK enzyme (Homo sapiens (Human), UniProt Q06187); test: Biochemical kinase assay wt-BTK (IMAP)
In short: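 Compound and enzyme (final 1.2 nM) were pre-incubated for 1 h at RT, after which the reaction was started with 4 μM ATP plus 50 nM fluorescein-MBP substrate peptide. After 2 h in the dark, the IMAP progressive binding reagent stopped the reaction, and phosphorylation was read by fluorescence polarization.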

Chain of wt-BTK (Q06187 whole entry): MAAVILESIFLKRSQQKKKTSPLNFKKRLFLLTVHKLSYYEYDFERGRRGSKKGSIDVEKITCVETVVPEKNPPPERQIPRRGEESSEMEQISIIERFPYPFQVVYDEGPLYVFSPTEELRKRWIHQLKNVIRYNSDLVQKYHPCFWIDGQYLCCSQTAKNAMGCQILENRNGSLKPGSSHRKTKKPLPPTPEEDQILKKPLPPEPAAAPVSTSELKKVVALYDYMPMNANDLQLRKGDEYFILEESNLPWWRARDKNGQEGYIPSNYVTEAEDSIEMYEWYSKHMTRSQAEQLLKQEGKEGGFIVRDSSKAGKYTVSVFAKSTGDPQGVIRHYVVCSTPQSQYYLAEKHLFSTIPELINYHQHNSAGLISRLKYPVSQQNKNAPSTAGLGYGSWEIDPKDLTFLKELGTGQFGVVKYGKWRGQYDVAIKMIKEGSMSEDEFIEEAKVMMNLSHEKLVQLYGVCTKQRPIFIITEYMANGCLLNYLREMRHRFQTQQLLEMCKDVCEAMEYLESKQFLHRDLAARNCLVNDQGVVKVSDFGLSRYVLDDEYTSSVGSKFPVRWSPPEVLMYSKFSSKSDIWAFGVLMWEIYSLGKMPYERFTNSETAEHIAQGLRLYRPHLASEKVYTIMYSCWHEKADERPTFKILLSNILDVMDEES
Chain of full-length wt-BTK enzyme (Q06187 whole entry): as above
Chain of BTK T316A (Q06187 whole entry T316A): as the sequence (Q06187 whole entry) above, with T316A counted along it
Chain of BTK T474I (Q06187 whole entry T474I): as the sequence (Q06187 whole entry) above, with T474I counted along it
Chain of BTK C481S (Q06187 whole entry C481S): as the sequence (Q06187 whole entry) above, with C481S counted along it
Chain of full-length BTK C481S enzyme (Q06187 whole entry C481S): as the sequence (Q06187 whole entry) above, with C481S counted along it
Chain of BTK T474S (Q06187 whole entry T474S): as the sequence (Q06187 whole entry) above, with T474S counted along it

Compound | pKd (BTK T316A) | Tau (h) BTK T316A (Act) (BTK T316A) [h] | pIC50 (REC-1 T474I cell lines) | pKd (wt-BTK) | Tau (h) wt-BTK (Act) (wt-BTK) [h] | pIC50 [1] | pIC50 [2] | pIC50 [3] | pKd (BTK T474I) | residence time (BTK T474S) [h] | pKd (BTK T474S) | pKd (BTK C481S) | Tau (h) BTK C418S (Act) (BTK C481S) [h] | pIC50 [4] | Tau (h) BTK T474I (Act) (BTK T474I) [h]
C[C@@H]1CCn2nc(-c3ccc(C(=O)Nc4cc(C(F)(F)F)ccn4)cc3)c3c(N)ncc(c32)/C=C/CO[C@H](C)C(=O)N1 [Example 57] | > 8.30 | 2.06 | 5.00 to 6.30 | > 8.30 | 2.14 | > 7.00 | > 8.30 | > 7.00 | > 8.70 | 1.96 | > 8.52 | > 8.30 | 7.92 | > 8.30 | 
C[C@@H]1CCn2nc(-c3ccc(C(=O)Nc4cc(C(F)(F)F)ccn4)cc3)c3c(N)ncc(c32)/C=C/CCOCC(=O)N1 [Example 59] | > 8.30 | 1.04 | 5.00 to 6.30 | > 8.30 | 1.10 | > 7.00 | > 8.30 | > 7.00 | 7.30 to 8.00 and > 8.30 |  | > 8.52 | > 8.30 | 2.05 | > 8.30 | 
C[C@@H]1CCn2nc(-c3ccc(C(=O)Nc4cc(C(F)(F)F)ccn4)cc3)c3c(N)ncc(c32)/C=C/CCN2CC[C@H]2C(=O)N1 [Example 68] | > 8.30 | 3.79 | 5.00 to 6.30 | > 8.30 | 4.48 | > 7.00 | > 8.30 | > 7.00 | > 8.70 | 3.79 | > 8.52 | > 8.30 | 2.39 | > 8.30 | 
C[C@@H]1CCn2nc(-c3ccc(C(=O)Nc4cc(C(F)(F)F)ccn4)cc3)c3c(N)ncc(c32)/C=C/COCCC(=O)N1 [Example 71] | > 8.30 | 4.64 | 6.30 to 7.00 | > 8.30 | 7.08 | > 7.00 | > 8.30 | > 7.00 | > 8.70 | 4.32 | > 8.52 | > 8.30 | 4.52 | > 8.30 | 0.52
C[C@@H]1CCn2nc(-c3ccc(C(=O)Nc4cc(C(F)(F)F)ccn4)cc3)c3c(N)ncc(c32)/C=C/CCCC(=O)N1 [Example 76] | > 8.30 |  | 5.00 to 6.30 | > 8.30 | 0.97 | 6.00 to 7.00 | > 8.30 | > 7.00 | 7.30 to 8.00 and > 8.30 | 1.85 | > 8.52 | > 8.30 | 1.63 | > 8.30 | 
Nc1ncc2c3c1c(-c1ccc(C(=O)Nc4cc(C(F)(F)F)ccn4)cc1)nn3[C@@H]1CCCN(C1)C(=O)CCCCCC/C=C/2 [Example 79] | > 8.30 | 3.23 | 6.30 to 7.00 | > 8.30 | 8.24 | > 7.00 | > 8.30 | > 7.00 | > 8.70 | 6.2 | > 8.52 | > 8.30 | 7.11 | > 8.30 | 1.80
Nc1ncc2c3c1c(-c1ccc(C(=O)Nc4cc(C(F)(F)F)ccn4)cc1)nn3[C@@H]1CCCN(C1)C(=O)CCCCCC(O)/C=C/2 (stereo partly drawn) [Example 83] | > 8.30 | 1.36 | 5.00 to 6.30 | > 8.30 | 2.95 | > 7.00 | > 8.30 | > 7.00 | > 8.70 | 3.04 | > 8.52 | > 8.30 | 4.44 | > 8.30 | 
Nc1ncc2c3c1c(-c1ccc(C(=O)Nc4cc(C(F)(F)F)ccn4)cc1)nn3[C@@H]1CCC[C@H](C1)C(=O)NCCCC/C=C\C2 [Example 85b] |  | 2.50 | 6.30 to 7.00 | > 8.30 | 4.08 | > 7.00 | > 8.30 | > 7.00 | 7.30 to 8.00 and > 8.30 | 4.36 | > 8.52 | > 8.30 | 7.12 | > 8.30 | 
Nc1ncc2c3c1c(-c1ccc(C(=O)Nc4ccccn4)cc1)nn3[C@@H]1CCC[C@H](C1)C(=O)NCCCC/C=C\C2 [Example 87b] | > 8.30 |  | 6.30 to 7.00 | > 8.30 |  | > 7.00 | > 8.30 | > 7.00 | 7.30 to 8.00 and > 8.30 |  | > 8.52 | > 8.30 |  | > 8.30 | 
Nc1ncc2c3c1c(-c1ccc(C(=O)Nc4ccccn4)cc1)nn3[C@@H]1CCC[C@H](C1)C(=O)NCCCCC/C=C\C2 [Example 88b] | > 8.30 |  | 5.00 to 6.30 | > 8.30 | 1.37 | > 7.00 | > 8.30 | > 7.00 | 7.30 to 8.00 and > 8.30 |  | > 8.52 | > 8.30 | 1.44 | > 8.30 | 
Nc1ncc2c3c1c(-c1ccc(C(=O)Nc4ccccn4)cc1)nn3[C@@H]1CCC[C@H](C1)NC(=O)CCCC/C=C\C2 [Example 100b] | > 8.30 |  | 5.00 to 6.30 | > 8.30 |  | 6.00 to 7.00 | > 8.30 | > 7.00 | 7.30 to 8.00 and > 8.30 |  | > 8.30 | > 8.30 | 0.98 | > 8.30 | 
